The source of these data is article PMC3273640 (Journal of Molecular Biology, 2011).

This series is described as follows: CD measurements of folding in water/TFE mixtures. Type of series: physicochemical. To be noted: CD in water/TFE mixtures (>= 2 M TFE), fit with Eq. S11.

In the case of “Ac-CGWWLALALALALALALALALALALWWA-NH2 [WALP27]”, the folding free energy was 4.8 ± 0.2 kcal/mol.

“Ac-CGWWLALALALALALALALALWWA-NH2 [WALP23]”: the folding free energy stood at 4.6 ± 0.2 kcal/mol.
